Source: PMC10659437 (bioRxiv, 2023)

Assays:
Format in all cases: cell-based
[1] = molecular target: T1, human trace amine-associated receptor 1 (hTAAR1, hTA1) (Homo sapiens, UniProt Q96RJ0); assay: GloSensor cAMP accumulation, hTA1-transfected HEK293T cells, with pocket mutants
T1 sequence (Q96RJ0 1-339): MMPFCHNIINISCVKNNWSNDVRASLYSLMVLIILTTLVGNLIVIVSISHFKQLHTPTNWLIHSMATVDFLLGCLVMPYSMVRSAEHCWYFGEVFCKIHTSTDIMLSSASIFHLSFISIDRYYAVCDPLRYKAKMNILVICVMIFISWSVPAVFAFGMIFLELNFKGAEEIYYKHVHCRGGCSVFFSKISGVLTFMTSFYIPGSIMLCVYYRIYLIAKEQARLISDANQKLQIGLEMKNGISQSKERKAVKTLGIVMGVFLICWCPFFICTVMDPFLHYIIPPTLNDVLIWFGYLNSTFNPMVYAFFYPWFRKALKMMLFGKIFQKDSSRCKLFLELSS

[2] = molecular target: T1, human trace amine-associated receptor 1 (hTAAR1, hTA1); assay: GloSensor cAMP accumulation, hTA1-transfected HEK293T cells
[3] = molecular target: T1, human trace amine-associated receptor 1 (hTAAR1, hTA1); assay: cryo-EM structure of the hTA1-Gs complex

SMILES	EC50 [2]	other results
CN1CC2c3ccccc3Oc3ccc(Cl)cc3C2C1 (stereo not shown) [asenapine]	–	EC50 [1]: 6.56 ± 0.01 pEC50
Cc1c(F)cccc1[C@H]1COC(N)=N1 [Ro5263397]	1.48 nM	–
NCCc1ccc(O)cc1 [tyramine]	6.38 ± 0.04 pEC50	–
CC[C@@H](C[C@H]1COC(N)=N1)c1ccccc1 [Ro5256390]	–	EC50 [3]: ~5 nM
